Measurements reported in US20130210786A1, “TREATMENT OF L-DOPA, DOPAMINE AGONIST AND/OR DOPAMINE ENHANCER INDUCED DISORDERS” (priority 2010, published 2013).

Assays:
[1] = test system: MPTP-lesioned macaques; assay: L-DOPA induced dyskinesia (LID) in MPTP-lesioned macaques, monkey dyskinesia rating scale; assay type: in vivo, Macaca fascicularis; conditions: for % reduction in LID compared to corresponding vehicle group / Number of LID events in each stated time period (hours) post challenge 0-1 / Number of LID events in each stated time period (hours) post challenge 1-2 / Number of LID events in each stated time period (hours) post challenge 2-3 / Number of LID events in each stated time period (hours) post challenge 3-4 / Number of LID events in each stated time period (hours) post challenge 4-5 / Number of LID events in each stated time period (hours) post challenge 5-6 / Number of LID events post challenge Total: smilagenin 20 mg/kg/day p.o. 18 weeks, then 10 week washout; for Number of LID events in each stated time period (hours) post challenge 0-1: 0-1 h; for Number of LID events in each stated time period (hours) post challenge 1-2: 1-2 h; for Number of LID events in each stated time period (hours) post challenge 2-3: 2-3 h; for Number of LID events in each stated time period (hours) post challenge 3-4: 3-4 h; for Number of LID events in each stated time period (hours) post challenge 4-5: 4-5 h; for Number of LID events in each stated time period (hours) post challenge 5-6: 5-6 h; for Number of LID events post challenge Total: total 0-6 h
Procedure: Ten female cynomolgus monkeys (macaques) (Macaca fascicularis, 3.0-4.5 kg, 4-6 years old) were acclimatised to the experimental setting and procedures for 3 months and baseline behaviour was assessed in all animals. The macaques received MPTP (0.2 mg/kg/day, s.c.) until moderate-marked, stable, parkinsonian symptoms developed.
Following stabilisation of parkinsonian disability, the macaques were administered L-DOPA (Madopar, 20 mg/kg b.i.d., p.o.) for 19 weeks before being administered L-DOPA+vehicle (hydroxypropylmethylcellulose, HPMC, 0.5% w/v containing Tween 80, 0.2% v/v, group 1, n=5) or L-DOPA+smilagenin (20 mg/kg/day, p.o., group 2, n=5) for a further 18 weeks. Smilagenin was then washed out for 10 weeks and all the macaques received only L-DOPA twice daily over this 10 week period.
Following the 10 week washout, the macaques were challenged with L-DOPA (6, 12, 20, 30 or 40 mg/kg, p.o.) or vehicle and the level of dyskinesia over the subsequent 6 h period was assessed by a neurologist blinded to treatment using a monkey dyskinesia rating scale. […] Each macaque received a challenge once every 3 days and received every challenge (vehicle and L-DOPA, 6, 12, 20, 30 or 40 mg/kg) in a randomised order over the course of the experiment. On the days between challenges, the macaques received L-DOPA (20 mg/kg, b.i.d., p.o.) as normal.
The MPTP-lesioned and L-DOPA treated macaques used in this experiment provide an accepted model for L-DOPA-induced dyskinesia.

[2] = test system: MPTP-lesioned macaques; assay: On-time (time without bradykinesia) in MPTP-lesioned macaques after L-DOPA challenge; assay type: in vivo, Macaca fascicularis; conditions: for Minutes spent in on time (mean ± s.e. mean): 6 h observation; for Minutes spent in on time (mean ± s.e. mean) / Percent on-time normalised to 0 mg/kg L-DOPA (mean ± s.e. mean): smilagenin 20 mg/kg/day p.o. 18 weeks, then 10 week washout
Procedure: Analysis was performed using a two-way ANOVA with group and L-DOPA dose as factors.

[3] = Total across all L-DOPA challenge doses (0-40 mg/kg)

SMILES: C[C@@H]1CC[C@@]2(OC1)O[C@H]1C[C@H]3[C@@H]4CC[C@@H]5C[C@@H](O)CC[C@]5(C)[C@H]4CC[C@]3(C)[C@H]1[C@@H]2C [Smilagenin, smilagenin]
- % reduction in LID compared to corresponding vehicle group ([1]; Across all doses of L-DOPA): 53%
- Number of LID events in each stated time period (hours) post challenge 0-1 ([1]; L-DOPA challenge 0 mg/kg): 0
- Number of LID events in each stated time period (hours) post challenge 1-2 ([1]; L-DOPA challenge 0 mg/kg): 0
- Number of LID events in each stated time period (hours) post challenge 2-3 ([1]; L-DOPA challenge 0 mg/kg): 0
- Number of LID events in each stated time period (hours) post challenge 3-4 ([1]; L-DOPA challenge 0 mg/kg): 0
- Number of LID events in each stated time period (hours) post challenge 4-5 ([1]; L-DOPA challenge 0 mg/kg): 0
- Number of LID events in each stated time period (hours) post challenge 5-6 ([1]; L-DOPA challenge 0 mg/kg): 0
- % reduction in LID compared to corresponding vehicle group ([1]; L-DOPA challenge 0 mg/kg): 0%
- Number of LID events post challenge Total ([1]; L-DOPA challenge 0 mg/kg): 0
- Number of LID events in each stated time period (hours) post challenge 0-1 ([1]; L-DOPA challenge 6 mg/kg p.o.): 0
- Number of LID events in each stated time period (hours) post challenge 1-2 ([1]; L-DOPA challenge 6 mg/kg p.o.): 0
- Number of LID events in each stated time period (hours) post challenge 2-3 ([1]; L-DOPA challenge 6 mg/kg p.o.): 0
- Number of LID events in each stated time period (hours) post challenge 3-4 ([1]; L-DOPA challenge 6 mg/kg p.o.): 0
- Number of LID events in each stated time period (hours) post challenge 4-5 ([1]; L-DOPA challenge 6 mg/kg p.o.): 0
- Number of LID events in each stated time period (hours) post challenge 5-6 ([1]; L-DOPA challenge 6 mg/kg p.o.): 0
- % reduction in LID compared to corresponding vehicle group ([1]; L-DOPA challenge 6 mg/kg p.o.): 0%
- Number of LID events post challenge Total ([1]; L-DOPA challenge 6 mg/kg p.o.): 0
- Number of LID events in each stated time period (hours) post challenge 0-1 ([1]; L-DOPA challenge 12 mg/kg p.o.): 0
- Number of LID events in each stated time period (hours) post challenge 1-2 ([1]; L-DOPA challenge 12 mg/kg p.o.): 0
- Number of LID events in each stated time period (hours) post challenge 2-3 ([1]; L-DOPA challenge 12 mg/kg p.o.): 0
- Number of LID events in each stated time period (hours) post challenge 3-4 ([1]; L-DOPA challenge 12 mg/kg p.o.): 0
- Number of LID events in each stated time period (hours) post challenge 4-5 ([1]; L-DOPA challenge 12 mg/kg p.o.): 0
- Number of LID events in each stated time period (hours) post challenge 5-6 ([1]; L-DOPA challenge 12 mg/kg p.o.): 0
- % reduction in LID compared to corresponding vehicle group ([1]; L-DOPA challenge 12 mg/kg p.o.): 100%
- Number of LID events post challenge Total ([1]; L-DOPA challenge 12 mg/kg p.o.): 0
- Number of LID events in each stated time period (hours) post challenge 0-1 ([1]; L-DOPA challenge 20 mg/kg p.o.): 8
- Number of LID events in each stated time period (hours) post challenge 1-2 ([1]; L-DOPA challenge 20 mg/kg p.o.): 29
- Number of LID events in each stated time period (hours) post challenge 2-3 ([1]; L-DOPA challenge 20 mg/kg p.o.): 6
- Number of LID events in each stated time period (hours) post challenge 3-4 ([1]; L-DOPA challenge 20 mg/kg p.o.): 0
- Number of LID events in each stated time period (hours) post challenge 4-5 ([1]; L-DOPA challenge 20 mg/kg p.o.): 0
- Number of LID events in each stated time period (hours) post challenge 5-6 ([1]; L-DOPA challenge 20 mg/kg p.o.): 0
- % reduction in LID compared to corresponding vehicle group ([1]; L-DOPA challenge 20 mg/kg p.o.): 52%
- Number of LID events post challenge Total ([1]; L-DOPA challenge 20 mg/kg p.o.): 43
- Number of LID events in each stated time period (hours) post challenge 0-1 ([1]; L-DOPA challenge 30 mg/kg p.o.): 3
- Number of LID events in each stated time period (hours) post challenge 1-2 ([1]; L-DOPA challenge 30 mg/kg p.o.): 29
- Number of LID events in each stated time period (hours) post challenge 2-3 ([1]; L-DOPA challenge 30 mg/kg p.o.): 11
- Number of LID events in each stated time period (hours) post challenge 3-4 ([1]; L-DOPA challenge 30 mg/kg p.o.): 0
- Number of LID events in each stated time period (hours) post challenge 4-5 ([1]; L-DOPA challenge 30 mg/kg p.o.): 0
- Number of LID events in each stated time period (hours) post challenge 5-6 ([1]; L-DOPA challenge 30 mg/kg p.o.): 0
- % reduction in LID compared to corresponding vehicle group ([1]; L-DOPA challenge 30 mg/kg p.o.): 76%
- Number of LID events post challenge Total ([1]; L-DOPA challenge 30 mg/kg p.o.): 43
- Number of LID events in each stated time period (hours) post challenge 0-1 ([1]; L-DOPA challenge 40 mg/kg p.o.): 8
- Number of LID events in each stated time period (hours) post challenge 1-2 ([1]; L-DOPA challenge 40 mg/kg p.o.): 56
- Number of LID events in each stated time period (hours) post challenge 2-3 ([1]; L-DOPA challenge 40 mg/kg p.o.): 48
- Number of LID events in each stated time period (hours) post challenge 3-4 ([1]; L-DOPA challenge 40 mg/kg p.o.): 14
- Number of LID events in each stated time period (hours) post challenge 4-5 ([1]; L-DOPA challenge 40 mg/kg p.o.): 0
- Number of LID events in each stated time period (hours) post challenge 5-6 ([1]; L-DOPA challenge 40 mg/kg p.o.): 0
- % reduction in LID compared to corresponding vehicle group ([1]; L-DOPA challenge 40 mg/kg p.o.): 27%
- Number of LID events post challenge Total ([1]; L-DOPA challenge 40 mg/kg p.o.): 126
- Number of LID events in each stated time period (hours) post challenge 0-1 [1, 3]: 19
- Number of LID events in each stated time period (hours) post challenge 1-2 [1, 3]: 114
- Number of LID events in each stated time period (hours) post challenge 2-3 [1, 3]: 65
- Number of LID events in each stated time period (hours) post challenge 3-4 [1, 3]: 14
- Number of LID events in each stated time period (hours) post challenge 4-5 [1, 3]: 0
- Number of LID events in each stated time period (hours) post challenge 5-6 [1, 3]: 0
- Number of LID events post challenge Total [1, 3]: 212
- Dyskinesia following challenge with L-DOPA ([1]; group 2 (L-DOPA+smilagenin), challenge with L-DOPA 6 or 12 mg/kg, 6 h): no dyskinesia was observed
- Dyskinesia following challenge with L-DOPA, compared to group 1 (vehicle) ([1]; group 2 (L-DOPA+smilagenin), challenge with L-DOPA at 20, 30 or 40 mg/kg): less dyskinesia compared to group 1
- Minutes spent in on time (mean ± s.e. mean) ([2]; L-DOPA dose 0 mg/kg): 114 ± 43 min
- Percent on-time normalised to 0 mg/kg L-DOPA (mean ± s.e. mean) ([2]; L-DOPA dose 0 mg/kg): 100%
- Minutes spent in on time (mean ± s.e. mean) ([2]; L-DOPA dose 6 mg/kg): 134 ± 43 min
- Percent on-time normalised to 0 mg/kg L-DOPA (mean ± s.e. mean) ([2]; L-DOPA dose 6 mg/kg): 118 ± 32%
- Minutes spent in on time (mean ± s.e. mean) ([2]; L-DOPA dose 12 mg/kg): 126 ± 35 min
- Percent on-time normalised to 0 mg/kg L-DOPA (mean ± s.e. mean) ([2]; L-DOPA dose 12 mg/kg): 111 ± 28%
- Minutes spent in on time (mean ± s.e. mean) ([2]; L-DOPA dose 20 mg/kg): 178 ± 29 min
- Percent on-time normalised to 0 mg/kg L-DOPA (mean ± s.e. mean) ([2]; L-DOPA dose 20 mg/kg): 156 ± 16%
- Minutes spent in on time (mean ± s.e. mean) ([2]; L-DOPA dose 30 mg/kg): 224 ± 13 min
- Percent on-time normalised to 0 mg/kg L-DOPA (mean ± s.e. mean) ([2]; L-DOPA dose 30 mg/kg): 196 ± 6%
- Minutes spent in on time (mean ± s.e. mean) ([2]; L-DOPA dose 40 mg/kg): 230 ± 24 min
- Percent on-time normalised to 0 mg/kg L-DOPA (mean ± s.e. mean) ([2]; L-DOPA dose 40 mg/kg): 202 ± 10%
- Total on-time, smilagenin group versus vehicle group ([2]; two-way ANOVA with group and L-DOPA dose as factors, p>0.05): not significantly different
